Experimental data published in patent US8338476B2, “Compositions and methods of sensitizing methicillin resistant Staphylococcus aureus to beta-lactam antibiotics” (priority 2005, dated 2012).
Read-outs that look alike come from different tables or passages of the source.

Experiments:
Format in all cases: cell-based, Staphylococcus aureus
[1] = test system: mid-logarithmic EMRSA-16 cells; experiment: Binding of catechins to S. aureus cells (HPLC assay of Kajiya et al); conditions: for fraction of the catechin pool bound to / associated with the cells: catechin alone, 20 min incubation at 35° C.
Excerpt: As S. aureus membranes are uniquely composed of phosphatidylglycerol (63-74%), lysylphosphatidylglycerol (17-22%), and cardiolipin (5-15%), the inventors determined the capacity of non-galloylated catechins to enhance ECG binding to S. aureus using the HPLC assay described by Kajiya et al (Kajiya, K., S. Kumazawa, and T. Nakayama. 2001. Steric effects on the interaction of tea catechins with lipid bilayers. Biosci. Biotechnol. Biochem. 65:2638-2643). EC, EGC, ECG and EGCG were provided by the Tokyo Food Techno Co. Ltd., Tokyo, Japan. S. aureus BB568 is a constitutive PBP2a producer (provided by B. Berger-Bächi, University of Zürich), and EMRSA-15 and EMRSA-16 were clinical isolates from the Royal Free Hospital, London. Binding of ECG to mid-logarithmic EMRSA-16 cells was enhanced by EC at concentrations of 25 mcg/ml. 13% of the EC pool bound after 20 min incubation at 35° C., and 22% of ECG was associated with the cells. In the presence of EC, ECG binding rose to 41%. […] EC appears, therefore, to facilitate ECG binding to staphylococcal cells as well as to PC and PE liposomes.

EMRSA-16 = experiment: Checkerboard MIC assay, sensitization to oxacillin; conditions: for MIC: Staphylococcus aureus
Experimental: MICs were then recorded and the experiments were repeated in the presence of the non-galloylated catechin epicatechin at varying concentrations between 0 mcg/ml and 50 mcg/ml.
(§1) Checkerboard MIC assays were performed in 96-well microtiter trays with an inoculum of about 10^4 CFU in 200 μl of Mueller-Hinton broth (Oxoid, Basingstoke, United Kingdom) supplemented with 2% NaCl. MIC values were obtained after incubation at 35° C. for 24 h. S. aureus ATCC29213 was used as the standard susceptible strain. Fractional inhibitory concentration (FIC) indices for triple combinations were calculated as follows: ΣFIC=FICOXA+FICB+FICC=[C^combOXA/MIC^OXA]+[C^combB/MICB]+[C^combC/MICC], where C^combB, and C^combc are the concentrations of catechins tested. […] For combinations of two compounds the term (C^combC/MICC) was omitted. An FIC index of ≦0.5 indicates synergy.

[2] = test system: EMRSA-16, EMRSA-15 and BB568; experiment: Checkerboard MIC assay, results stated jointly for the three isolates
Experimental: as §1

S. aureus BB568 = experiment: Checkerboard MIC assay, sensitization to oxacillin; conditions: for MIC: Staphylococcus aureus
Experimental: as §1

EMRSA-15 = experiment: Checkerboard MIC assay, sensitization to oxacillin
Experimental: as §1

Oc1cc(O)c2c(c1)O[C@H](c1ccc(O)c(O)c1)[C@H](O)C2 [EC, epicatechin] was tested, and the “EC binding in the presence of ECG” value ([1]; 20 min at 35° C.) was 35.5% and the “fraction of the catechin pool bound to / associated with the cells” value [1] was 13%.

In the case of O=C(O[C@@H]1Cc2c(O)cc(O)cc2O[C@@H]1c1ccc(O)c(O)c1)c1cc(O)c(O)c(O)c1 [ECG, epicatechin gallate], the “ECG binding in the presence of EC” value ([1]; EC 25 mcg/ml, 20 min at 35° C.) is reported as 41%, the “fraction of the catechin pool bound to / associated with the cells” value [1] is reported as 22% and the “growth of EMRSA-16 in the absence of oxacillin” value (EMRSA-16; ECG ≧12.5 mg/ml with both EC and EGC ≧50 mg/ml, no oxacillin) is reported as “inhibited the growth”.

Oc1cc(O)c2c(c1)O[C@H](c1cc(O)c(O)c(O)c1)[C@H](O)C2 [EGC, epigallocatechin] was tested, and the “FIC index, triple combination with oxacillin and ECG” value ([2]; FIC index ≦0.5 indicates synergy) was “strong synergy”, the “effect on the capacity of ECG to reduce oxacillin resistance” value ([2]; in combination with ECG and oxacillin) was “markedly enhanced” and the “enhancement of EGCG-mediated sensitization to oxacillin” value ([2]; in combination with EGCG and oxacillin, less than with ECG) was “could enhance sensitization”. For the same compound, the “effect of the non-galloylated catechin alone on the MIC of oxacillin” value ([2]; without ECG) was “unable to reduce the MIC of oxacillin”.

For O=C(O[C@@H]1Cc2c(O)cc(O)cc2O[C@@H]1c1cc(O)c(O)c(O)c1)c1cc(O)c(O)c(O)c1 [EGCG, epigallocatechin gallate], the “reduction of the oxacillin MIC by EGCG in the presence of ECG” value ([2]; ECG 3.12 mg/ml + EGCG 25 mg/ml, strain not stated) was “twofold”, the “sensitization to oxacillin by EGCG” value ([2]; EGCG without ECG, effect much less pronounced than with ECG) was “able to sensitize” and the “effect of EGCG on the capacity of ECG to reduce the oxacillin MIC” value (S. aureus BB568; ECG 12.5 mg/ml) was “compromised the capacity of ECG to reduce the MICs”. The “effect on oxacillin MIC when added to ECG” value (EMRSA-16; ECG 0-12.5 mcg/ml, added catechin 0-50 mcg/ml) was “substantially no significant and synergistic effect” and the “effect of EGCG on the capacity of ECG to reduce the oxacillin MIC” value (EMRSA-16; ECG 12.5 mg/ml) was “compromised the capacity of ECG to reduce the MICs”.

Cc1onc(-c2ccccc2)c1C(=O)N[C@@H]1C(=O)N2[C@@H]1SC(C)(C)[C@@H]2C(=O)O [oxacillin] was tested, and the “oxacillin MIC in the presence of ECG” value (S. aureus BB568; ECG 12.5 mg/ml) was “below the oxacillin breakpoint”, the MIC (S. aureus BB568; BB568, read-out: oxacillin MIC in the presence of ECG and EC) was 8 µg/mL and the MIC (S. aureus BB568; BB568, read-out: oxacillin MIC in the presence of ECG and EC, ECG 3.12 mg/ml + EC 25 mg/ml) was 2 µg/mL. The “oxacillin MIC in the presence of ECG” value (EMRSA-15; ECG 3.12 mg/ml) was “a similar effect was achieved”, the MIC (EMRSA-15; Staphylococcus aureus, 24 h, read-out: MIC of oxacillin) was 16 µg/mL and the “oxacillin MIC in the presence of ECG” value (EMRSA-16; ECG 12.5 mg/ml) was “below the oxacillin breakpoint”. It also gave an MIC (EMRSA-16; read-out: oxacillin MIC in the presence of ECG and EC, ECG 3.12 mg/ml + EC 25 mg/ml) of 2 µg/mL and an MIC (EMRSA-16; read-out: oxacillin MIC in the presence of ECG and EC, ECG 3.12 mcg/ml + EC 6.25 mcg/ml) of 8 µg/mL.
